Data set [1] can be described thus: Slurry conversion and competitive slurry conversion in water, saline, buffer and other solvents. In kind it is physicochemical. Particulars: in the presence of aqueous based solvents (suspensions, wetted material), absence of methanol and/or ethanol. As for the experimental part:
a) Crystalline tetrasolvates according to the invention and especially crystalline forms S1 and S2, can be obtained by slurry conversion from form A1 in a Methanol/Water mixture (70 v %:30 v %) at 25° C. for 2 days stirring time and Ethanol/Water mixture (60 v %:40 v %) at 25° C. for 18 days stirring time, respectively. General procedure:
Approx. 500 mg of form A1 of Cilengitide are dispersed in 5 ml solvent at room temperature. The dispersion is stirred for the mentioned time by a magnetic stirrer and finally filtered.
Form A1 of Cilengitide can be obtained by slurry conversion from pseudopolymorphic forms (for example S1, S2, S3 or mixtures of these) in Water at 25° C. An increased temperature (50° C.) accelerates the conversion to form A1.
Approx. 10 g of a pseudopolymorphic form (for example S1, S2, S3 or mixtures of these) of Cilengitide are dispersed in 50 ml deionised water at room temperature. The dispersion is stirred for 24 h by a magnetic stirrer and finally filtered.
Also the pure form form A1 can be manufactured by competitive slurry conversion experiments with a mixture of a pseudopolymorphic form (for example S1, S2, S3 or mixtures of these) and A1 (1:1) in Acetone, Acetonitrile, Isopropanol, physiological NaCl solution, Phosphate buffer (pH 7.4) and 1:1 (v:v) mixtures of Acetone, Acetonitrile, Isopropanol with Water at RT (25° C.).
Approx. […]

The nature of data set [2]: Competitive slurry conversion of pseudopolymorphic form and form A1 (1:1) in Water/Methanol and Water/Ethanol mixtures. The format is physicochemical. Here is the method:
b) Additionally, crystalline tetrasolvates according invention and especially crystalline forms S1 and S2 can be manufactured by competitive slurry conversion experiments with a mixture of a pseudopolymorphic form (for example S1, S2, S3 or mixtures of these) with form A1 (1:1) in Water/Methanol and Water/Ethanol mixtures with different alcohol contents at different temperatures, respectively.
Approx. 20 mg of a pseudopolymorphic form (for example S1, S2, S3 or mixtures of these) and 20 mg of form A1 of Cilengitide are dispersed in 300 μl Water/alcohol mixture at 0° C. or room temperature (25° C.). The dispersion is stirred for 24 h and additionally for 3 weeks at RT (25° C.) (long-term experiment) by a magnetic stirrer and finally filtered
Approx. 20 mg of a pseudopolymorphic form (for example S1, S2, S3 or mixtures of these) and 20 mg of form A1 of Cilengitide are dispersed in 300 μl Water/alcohol mixture at 50° C. The dispersion is stirred for 24 h by a magnetic stirrer and finally filtered.
Additionally form A1 can be manufactured by competitive slurry conversion experiments with a mixture of a pseudopolymorphic form (for example S1, S2, S3 or mixtures of these) and form A1 (1:1) in Water/Methanol and Water/Ethanol mixtures with different alcohol contents at different temperatures. In the following table the conditions for the experiments leading to the pure form A1 are listed.
Approx. 20 mg of a pseudopolymorphic form (for example S1, S2, S3 or mixtures of these) and 20 mg of form A1 of Cilengitide are dispersed in 300 μl Water/alcohol mixture at 0° C., room temperature and 50° C. The dispersion is stirred for 24 h and additionally for 3 weeks at RT (25° C.) (long-term experiment) by a magnetic stirrer and finally filtered.

Data set [3] is classed as physicochemical.
Text: Preferably, the anhydrates or ansolvates according to the invention and especially the crystalline form A1 can be characterised, alternatively or additionally, by dynamic vapour sorption experiments. The results can be obtained by standard techniques as described in Rolf Hilfiker, ‘Polymorphism in the Pharmaceutical Industry’, Wiley-VCH. Weinheim 2006 (Chapter 9: Water Vapour Sorption, and references therein). […] Eur. criteria.
Preferably, the tetrasolvates according to the invention, more preferably the tetrahydrates according to the invention and especially the crystalline form S3 can be characterised, alternatively or additionally, by dynamic vapour sorption experiments. The results can be obtained by standard techniques as described in Rolf Hilfiker, ‘Polymorphism in the Pharmaceutical Industry’, Wiley-VCH. Weinheim 2006 (Chapter 9: Water Vapour Sorption, and references therein).
Dynamic Vapor Sorption measurements are preferably obtained on a SMS DVS Intrinsic system. The results are preferably obtained by standard techniques as described by Rolf Hilfiker “Polymorphism in the Pharmaceutical Industry” Wiley-VCH Weinheim 2006 (Chapter 9: Water Vapour Sorption, and references therein.) Approx. 2-10 mg of samples are preferably weighed into an Aluminium 100 μL pan and placed in the sample incubator of the DVS instrument with microbalance. A nitrogen overall flow rate of 200 mL/min (combined dry and humid stream) is preferably used for humidification. Water vapor sorption isotherms are preferably acquired at 25° C. in the range 0% relative humidity to 98% relative humidity mostly with 10% relative humidity steps. For all relative humidity steps, an equilibrium condition of dm/dt≦0.0005 wt %/min are preferably used, with a minimum relative humidity step time of 10 minutes and a maximum relative humidity step time of 360 minutes which is preferably used as a timeout if the dm/dt criterai mentioned above is not been reached.
A SMS DVS I system is used for the dynamic vapour experiments regarding crystalline form S3. The results have been obtained by standard techniques as described in Rolf Hilfiker, ‘Polymorphism in the Pharmaceutical Industry’, Wiley-VCH. Weinheim 2006 (Chapter 9: Water Vapour Sorption, and references therein). […] During the water adsorption cycle there is shown an assembly of water molecules (ca. 10 wt%) in the lattice at elevated rh. In the second desorption cycle there is a loss of this amount of water.
(§1) A SMS DVS Intrinsic is used for the dynamic vapour experiments. The results are obtained by standard techniques as described in Rolf Hilfiker, ‘Polymorphism in the Pharmaceutical Industry’, Wiley-VCH. Weinheim 2006 (Chapter 9: Water Vapour Sorption, and references therein). […] Upon water vapour adsorption, an assembly of water molecules in the lattice is observed, with a maximum weight gain of approx. 8 wt % at elevated rh. In the second desorption cycle a total mass loss of approx. 9.9 wt % is observed. For a Cilengitide Dihydrate Di-Methanolate, the calculated Methanol content equals 9.3 wt %.
as §1, with “6.4” for “8”, “9.2” for “9.9”, “Di-Ethanolate,” for “Di-Methanolate,”, “Ethanol” for “Methanol”, “12.5” for “9.3”

The mark [4] stands for this setting: 50° C. for 1 day, table of b579.
[5] abbreviates: 50° C. for 1 day, table of b595.

Take “cyclo-(Arg-Gly-Asp-DPhe-NMe-Val) [crystalline form A1]”: in data set [1], the “Thermodynamic stability of the form” value is “thermodynamically stable form”. In addition, the “Ethanol in the mixture with Water leading to pure form A1” value is 0-10 v % in data set [2] (0° C. for 1 day), 0-80 v % in data set [2] (setting [5]), 0-20 v % in data set [2] (RT for 3 weeks) and 0-30 v % in data set [2] (RT for 1 day). In addition, the “Methanol in the mixture with Water leading to pure form A1” value in data set [2] (0° C. for 1 day) is on record as 0 v %; in data set [2] (setting [5]) it was 0-70 v %; in data set [2] (RT for 3 weeks), 0-40 v %; in data set [2] (RT for 1 day), 0-50 v %. Further, in data set [2] (setting [4]), the “Ethanol in the mixture with Water leading to form A1 (no pseudopolymorphic form obtained)” value is 90-100 v %. The “Methanol in the mixture with Water leading to form A1 (no pseudopolymorphic form obtained)” value in data set [2] (setting [4]) is on record as 90-100 v %. The “Physical stability of the crystal form versus relative humidity” value in data set [3] is “physical stability of the crystal form throughout the entire relative humidity range (0-98%)”. For the same substance, in data set [3] (acc. to Ph. Eur. criteria, water vapour sorption 25° C.), the Hygroscopicity classification entry is given as “non-hygroscopic”. For the same substance, in data set [3] (up to 98% relative humidity, 25° C.), the Water uptake levels entry is listed as “small”. The “Formation or conversion to a hydrate” value in data set [3] (water vapour sorption up to 98% relative humidity) is reported as “No formation or conversion to a hydrate is observed”.

Values taken from patent publication US8765684B2, “Solid materials of {[(2S,5R,8S,11S)-5-benzyl-11-(3-guanidino-propyl)-8-isopropyl-7-methyl-3,6,9,12,15-pentaoxo-1,4,7,10,13-pentaaza-cyclopentadec-2-yl]-acetic acid} and methods for obtaining them” (Merck Patent GmbH, priority 2009, dated 2014).
